Where two headings read alike, the source gives them in different places. Values belong to the molecule of their own block, whether it stands above or below them.
Tests used:
Test in all cases: biochemical
Parameters in all cases: DiscoveRx KINOMEscan active site-directed competition binding; percent of control kinase bound to immobilised ligand
[1] = target: T1, TRKB (Homo sapiens, UniProt Q16620)
T1 construct: gene NTRK2

[2] = target: T2, ABL1(F317L)-nonphosphorylated (Homo sapiens, UniProt P00519, F317L)
T2 construct: nonphosphorylated

[3] = target: T3, AMPK-alpha1 (Homo sapiens, UniProt Q13131)
T3 construct: gene PRKAA1

[4] = target: T4, EPHA6 (Homo sapiens, UniProt Q9UF33)
T4 sequence (Q9UF33 1-1036): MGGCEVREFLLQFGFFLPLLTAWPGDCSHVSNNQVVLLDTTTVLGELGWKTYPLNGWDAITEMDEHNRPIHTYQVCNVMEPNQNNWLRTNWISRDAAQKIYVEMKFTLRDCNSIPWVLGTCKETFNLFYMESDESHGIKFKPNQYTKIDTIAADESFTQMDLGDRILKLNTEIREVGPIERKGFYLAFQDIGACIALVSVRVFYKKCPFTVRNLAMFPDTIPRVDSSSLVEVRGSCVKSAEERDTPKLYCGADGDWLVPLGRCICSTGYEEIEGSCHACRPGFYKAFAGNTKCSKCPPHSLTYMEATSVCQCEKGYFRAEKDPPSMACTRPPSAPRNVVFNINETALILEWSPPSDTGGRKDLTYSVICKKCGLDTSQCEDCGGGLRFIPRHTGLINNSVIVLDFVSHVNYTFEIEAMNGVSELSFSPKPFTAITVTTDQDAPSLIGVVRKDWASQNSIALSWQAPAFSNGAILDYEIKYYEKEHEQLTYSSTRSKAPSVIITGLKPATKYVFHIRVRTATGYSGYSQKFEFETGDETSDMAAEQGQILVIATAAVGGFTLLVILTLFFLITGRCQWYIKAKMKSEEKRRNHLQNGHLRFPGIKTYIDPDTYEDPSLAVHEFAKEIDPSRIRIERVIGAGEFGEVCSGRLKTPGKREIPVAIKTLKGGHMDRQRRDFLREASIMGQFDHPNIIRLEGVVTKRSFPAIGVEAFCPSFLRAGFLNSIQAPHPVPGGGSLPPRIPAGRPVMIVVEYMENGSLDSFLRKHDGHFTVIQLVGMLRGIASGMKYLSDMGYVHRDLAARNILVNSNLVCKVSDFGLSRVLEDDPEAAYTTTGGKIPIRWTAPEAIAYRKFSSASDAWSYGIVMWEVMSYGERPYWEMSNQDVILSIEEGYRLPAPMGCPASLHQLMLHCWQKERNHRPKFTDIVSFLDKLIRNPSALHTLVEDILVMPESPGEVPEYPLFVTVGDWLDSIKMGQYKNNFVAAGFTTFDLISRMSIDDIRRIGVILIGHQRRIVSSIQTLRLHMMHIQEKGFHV

[5] = target: T5, YSK4 (Homo sapiens, UniProt Q56UN5)
T5 construct: gene MAP3K19
T5 sequence (Q56UN5 1-1328): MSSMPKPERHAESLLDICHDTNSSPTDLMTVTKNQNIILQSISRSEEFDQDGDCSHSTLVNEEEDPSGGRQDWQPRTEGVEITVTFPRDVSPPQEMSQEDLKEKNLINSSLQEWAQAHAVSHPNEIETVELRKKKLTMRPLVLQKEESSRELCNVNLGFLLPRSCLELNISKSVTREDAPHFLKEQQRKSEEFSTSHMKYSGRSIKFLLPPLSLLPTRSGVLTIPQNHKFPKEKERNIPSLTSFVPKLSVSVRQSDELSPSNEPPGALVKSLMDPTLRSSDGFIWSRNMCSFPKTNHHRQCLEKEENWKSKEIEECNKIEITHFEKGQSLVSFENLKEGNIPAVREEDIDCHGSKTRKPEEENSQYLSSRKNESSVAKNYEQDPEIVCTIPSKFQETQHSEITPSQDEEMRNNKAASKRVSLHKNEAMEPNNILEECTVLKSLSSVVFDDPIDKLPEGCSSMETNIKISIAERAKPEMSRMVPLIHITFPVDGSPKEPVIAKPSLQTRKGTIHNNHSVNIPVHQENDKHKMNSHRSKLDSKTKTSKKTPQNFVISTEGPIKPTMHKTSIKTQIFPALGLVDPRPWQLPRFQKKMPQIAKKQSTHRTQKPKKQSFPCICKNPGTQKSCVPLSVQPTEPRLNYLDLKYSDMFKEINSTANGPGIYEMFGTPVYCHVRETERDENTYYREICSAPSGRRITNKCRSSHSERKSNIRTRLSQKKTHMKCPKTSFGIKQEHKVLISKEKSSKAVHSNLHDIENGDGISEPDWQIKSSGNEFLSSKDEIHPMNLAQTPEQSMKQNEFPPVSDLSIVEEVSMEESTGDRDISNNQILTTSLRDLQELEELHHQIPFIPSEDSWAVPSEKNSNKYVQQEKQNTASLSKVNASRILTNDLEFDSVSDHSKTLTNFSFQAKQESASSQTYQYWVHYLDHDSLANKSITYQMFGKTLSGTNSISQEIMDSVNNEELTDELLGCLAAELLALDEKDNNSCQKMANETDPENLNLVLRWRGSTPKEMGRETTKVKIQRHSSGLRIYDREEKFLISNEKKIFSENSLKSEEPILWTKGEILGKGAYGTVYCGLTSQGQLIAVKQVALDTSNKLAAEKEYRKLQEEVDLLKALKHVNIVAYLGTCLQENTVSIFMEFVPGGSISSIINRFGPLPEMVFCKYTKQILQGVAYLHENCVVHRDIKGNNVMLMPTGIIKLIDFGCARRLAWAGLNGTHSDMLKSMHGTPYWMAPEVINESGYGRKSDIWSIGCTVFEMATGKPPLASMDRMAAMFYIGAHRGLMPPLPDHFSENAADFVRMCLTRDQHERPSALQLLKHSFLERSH

[6] = target: T6, RSK1(Kin.Dom.1-N-terminal) (Homo sapiens, UniProt Q15418)
T6 construct: gene RPS6KA1; Kin.Dom.1-N-terminal

[7] = read-out: Niraparib (MK-4827) / %Ctrl @ 10000nM
[8] = read-out: Rucaparib / %Ctrl @ 10000nM, binding competition, % of control
[9] = read-out: Olaparib / %Ctrl @ 10000nM
[10] = read-out: Talazoparib (BMN 673) / %Ctrl @ 10000nM

T6 sequence (Q15418 whole entry): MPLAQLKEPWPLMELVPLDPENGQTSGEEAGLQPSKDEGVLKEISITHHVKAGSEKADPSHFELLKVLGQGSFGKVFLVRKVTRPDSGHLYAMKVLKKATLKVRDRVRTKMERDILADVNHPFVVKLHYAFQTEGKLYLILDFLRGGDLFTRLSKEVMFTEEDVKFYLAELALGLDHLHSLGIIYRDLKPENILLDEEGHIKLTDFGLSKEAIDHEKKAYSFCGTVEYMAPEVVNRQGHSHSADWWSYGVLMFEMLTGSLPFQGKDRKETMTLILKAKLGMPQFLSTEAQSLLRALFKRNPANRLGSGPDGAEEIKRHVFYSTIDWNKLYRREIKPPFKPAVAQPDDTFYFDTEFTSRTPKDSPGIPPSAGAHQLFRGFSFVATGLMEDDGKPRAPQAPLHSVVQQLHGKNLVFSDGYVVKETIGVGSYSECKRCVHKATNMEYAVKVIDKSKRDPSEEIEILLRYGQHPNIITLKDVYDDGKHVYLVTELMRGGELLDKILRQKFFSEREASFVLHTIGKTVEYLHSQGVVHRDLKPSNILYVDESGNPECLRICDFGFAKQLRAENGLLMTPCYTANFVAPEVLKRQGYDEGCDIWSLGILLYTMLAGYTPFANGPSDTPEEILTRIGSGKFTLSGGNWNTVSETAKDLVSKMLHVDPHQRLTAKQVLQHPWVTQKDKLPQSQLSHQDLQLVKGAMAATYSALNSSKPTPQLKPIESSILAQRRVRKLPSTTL
T1 sequence (Q16620 whole entry): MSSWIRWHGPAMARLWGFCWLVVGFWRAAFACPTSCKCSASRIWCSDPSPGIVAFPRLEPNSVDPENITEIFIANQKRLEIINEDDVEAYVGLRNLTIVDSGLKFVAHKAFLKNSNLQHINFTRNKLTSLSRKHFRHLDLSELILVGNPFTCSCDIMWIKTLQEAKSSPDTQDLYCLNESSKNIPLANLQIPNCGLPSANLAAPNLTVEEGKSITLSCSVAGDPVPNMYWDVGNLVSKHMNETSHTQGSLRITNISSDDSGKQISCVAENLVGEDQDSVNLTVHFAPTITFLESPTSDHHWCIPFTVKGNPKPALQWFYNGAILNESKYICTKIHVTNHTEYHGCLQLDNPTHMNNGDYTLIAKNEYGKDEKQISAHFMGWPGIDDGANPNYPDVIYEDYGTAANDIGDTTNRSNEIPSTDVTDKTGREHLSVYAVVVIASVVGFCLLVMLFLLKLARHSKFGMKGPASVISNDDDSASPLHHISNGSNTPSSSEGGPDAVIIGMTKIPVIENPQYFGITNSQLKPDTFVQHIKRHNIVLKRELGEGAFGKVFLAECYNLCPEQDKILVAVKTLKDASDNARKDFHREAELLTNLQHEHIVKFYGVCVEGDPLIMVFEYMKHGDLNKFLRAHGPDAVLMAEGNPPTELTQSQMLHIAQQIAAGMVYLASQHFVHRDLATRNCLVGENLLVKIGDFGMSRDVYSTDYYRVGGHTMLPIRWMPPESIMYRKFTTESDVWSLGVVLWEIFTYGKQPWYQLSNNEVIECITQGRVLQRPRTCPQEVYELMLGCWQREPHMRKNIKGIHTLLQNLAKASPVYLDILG
T3 sequence (Q13131 whole entry): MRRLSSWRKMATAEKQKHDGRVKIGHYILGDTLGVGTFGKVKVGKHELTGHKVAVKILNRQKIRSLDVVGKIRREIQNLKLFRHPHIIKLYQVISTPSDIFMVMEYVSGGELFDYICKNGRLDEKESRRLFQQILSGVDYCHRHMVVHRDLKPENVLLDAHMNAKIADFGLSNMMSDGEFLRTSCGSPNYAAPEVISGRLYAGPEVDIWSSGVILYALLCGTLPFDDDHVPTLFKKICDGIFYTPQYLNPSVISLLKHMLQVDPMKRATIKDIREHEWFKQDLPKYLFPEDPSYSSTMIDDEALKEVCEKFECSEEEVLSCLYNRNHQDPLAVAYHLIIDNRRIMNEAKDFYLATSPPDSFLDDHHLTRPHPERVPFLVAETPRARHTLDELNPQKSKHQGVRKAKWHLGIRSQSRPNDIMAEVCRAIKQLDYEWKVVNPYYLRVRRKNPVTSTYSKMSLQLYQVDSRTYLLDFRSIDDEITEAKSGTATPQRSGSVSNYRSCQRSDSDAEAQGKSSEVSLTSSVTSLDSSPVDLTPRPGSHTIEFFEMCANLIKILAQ
T2 sequence (P00519 whole entry F317L): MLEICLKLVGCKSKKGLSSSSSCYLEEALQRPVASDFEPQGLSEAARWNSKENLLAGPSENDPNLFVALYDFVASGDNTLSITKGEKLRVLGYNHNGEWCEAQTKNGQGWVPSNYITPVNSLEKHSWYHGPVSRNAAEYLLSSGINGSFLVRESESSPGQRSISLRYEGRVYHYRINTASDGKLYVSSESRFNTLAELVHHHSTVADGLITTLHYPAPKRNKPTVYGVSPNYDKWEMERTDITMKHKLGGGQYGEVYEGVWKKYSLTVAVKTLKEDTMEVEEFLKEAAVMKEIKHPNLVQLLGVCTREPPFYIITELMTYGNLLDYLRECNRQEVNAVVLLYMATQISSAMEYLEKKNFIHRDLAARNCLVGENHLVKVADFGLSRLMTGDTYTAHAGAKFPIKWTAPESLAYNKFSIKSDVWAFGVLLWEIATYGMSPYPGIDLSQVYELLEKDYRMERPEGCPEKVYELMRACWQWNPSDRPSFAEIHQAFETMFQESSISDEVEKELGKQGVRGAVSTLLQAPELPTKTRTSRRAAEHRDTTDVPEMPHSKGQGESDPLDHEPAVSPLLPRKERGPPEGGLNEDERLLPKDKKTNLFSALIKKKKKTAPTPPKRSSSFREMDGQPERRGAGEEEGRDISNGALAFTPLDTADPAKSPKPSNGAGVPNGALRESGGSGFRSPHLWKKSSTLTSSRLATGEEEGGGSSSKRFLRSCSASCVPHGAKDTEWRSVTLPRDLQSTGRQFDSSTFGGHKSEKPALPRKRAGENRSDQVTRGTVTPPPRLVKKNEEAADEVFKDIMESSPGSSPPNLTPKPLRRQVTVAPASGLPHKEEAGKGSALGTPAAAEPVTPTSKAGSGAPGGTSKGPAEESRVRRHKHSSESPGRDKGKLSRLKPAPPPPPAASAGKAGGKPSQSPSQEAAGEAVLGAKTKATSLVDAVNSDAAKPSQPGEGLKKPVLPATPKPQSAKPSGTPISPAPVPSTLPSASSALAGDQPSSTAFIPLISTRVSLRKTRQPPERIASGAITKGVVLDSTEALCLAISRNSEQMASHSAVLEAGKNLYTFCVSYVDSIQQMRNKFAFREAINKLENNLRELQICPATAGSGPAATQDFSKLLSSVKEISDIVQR

SMILES: NC(=O)c1cccc2cn(-c3ccc([C@@H]4CCCNC4)cc3)nc12 [Niraparib]
- percent of control binding at 10 µM [1, 7]: 96%
- percent of control binding at 10 µM [2, 7]: 96%
- percent of control binding at 10 µM [3, 7]: 77%
- percent of control binding at 10 µM [4, 7]: 89%
- percent of control binding at 10 µM [5, 7]: 63%
- percent of control binding at 10 µM [6, 7]: 98%

- percent of control binding at 10 µM [1, 8]: 66%
- percent of control binding at 10 µM [2, 8]: 69%
- percent of control binding at 10 µM [3, 8]: 92%
- percent of control binding at 10 µM [4, 8]: 99%
- percent of control binding at 10 µM [5, 8]: 58%
- percent of control binding at 10 µM [6, 8]: 91%
SMILES: CNCc1ccc(-c2[nH]c3cc(F)cc4c3c2CCNC4=O)cc1 [Rucaparib]

- percent of control binding at 10 µM [1, 9]: 76%
- percent of control binding at 10 µM [2, 9]: 81%
- percent of control binding at 10 µM [3, 9]: 98%
- percent of control binding at 10 µM [4, 9]: 94%
- percent of control binding at 10 µM [5, 9]: 65%
- percent of control binding at 10 µM [6, 9]: 94%
SMILES: O=C(c1cc(Cc2n[nH]c(=O)c3ccccc23)ccc1F)N1CCN(C(=O)C2CC2)CC1 [Olaparib]

- percent of control binding at 10 µM [1, 10]: 100%
- percent of control binding at 10 µM [2, 10]: 58%
- percent of control binding at 10 µM [3, 10]: 100%
- percent of control binding at 10 µM [4, 10]: 100%
- percent of control binding at 10 µM [5, 10]: 89%
- percent of control binding at 10 µM [6, 10]: 100%
SMILES: Cn1ncnc1[C@H]1c2n[nH]c(=O)c3cc(F)cc(c23)N[C@@H]1c1ccc(F)cc1 [Talazoparib]
